The source of these data is patent US8563559B2 (Rigel Pharmaceuticals, Inc., priority 2006, dated 2013).

pIC50: −log10 of the molar value.

The target in the first test is T1, Axl (Homo sapiens, UniProt P30530).
T1 construct: endogenous in cells; host or cells: HeLa
T1 sequence (P30530 26-894): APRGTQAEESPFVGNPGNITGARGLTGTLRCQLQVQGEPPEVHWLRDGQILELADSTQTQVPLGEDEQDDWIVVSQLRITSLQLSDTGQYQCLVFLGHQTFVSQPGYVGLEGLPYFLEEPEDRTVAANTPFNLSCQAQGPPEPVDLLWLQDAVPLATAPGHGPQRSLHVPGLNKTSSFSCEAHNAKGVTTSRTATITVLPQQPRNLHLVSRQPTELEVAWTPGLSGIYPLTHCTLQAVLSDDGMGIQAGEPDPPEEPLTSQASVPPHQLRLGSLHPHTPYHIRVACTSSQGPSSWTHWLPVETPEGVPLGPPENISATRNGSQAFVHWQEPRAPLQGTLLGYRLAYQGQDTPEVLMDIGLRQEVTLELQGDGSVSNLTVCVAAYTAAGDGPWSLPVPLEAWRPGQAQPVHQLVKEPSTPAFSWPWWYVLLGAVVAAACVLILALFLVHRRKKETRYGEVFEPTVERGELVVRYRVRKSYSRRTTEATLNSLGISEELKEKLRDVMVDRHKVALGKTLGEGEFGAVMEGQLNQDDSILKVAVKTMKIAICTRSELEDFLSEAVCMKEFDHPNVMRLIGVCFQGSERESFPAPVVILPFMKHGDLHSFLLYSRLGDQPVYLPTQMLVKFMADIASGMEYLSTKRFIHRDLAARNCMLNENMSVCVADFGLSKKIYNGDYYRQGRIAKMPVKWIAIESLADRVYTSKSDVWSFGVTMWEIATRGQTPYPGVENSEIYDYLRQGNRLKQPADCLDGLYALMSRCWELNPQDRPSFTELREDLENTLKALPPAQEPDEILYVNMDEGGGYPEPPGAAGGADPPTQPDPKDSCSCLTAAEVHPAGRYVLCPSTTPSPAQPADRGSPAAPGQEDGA
Nature of the test: Phospho-AKT in-cell Western assay (inhibition of Axl activity). Conditions: Table 1, formula (Ia); Hela cells, Axl antibody cross-linking stimulation, phospho-Akt chemiluminescence normalized to relative cell number. It is filed as cell-based. The method, boiled down: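 HeLa cells were starved 24 h in 0.5% FCS with Axl/Fc 500 ng/mL, pre-treated with compound for 1 h at 37 °C, then stimulated 5 min by anti-Axl antibody cross-linking. Fixed cells were probed for phospho-AKT with an HRP-linked in-cell Western and read by chemiluminescence.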
What is called pIC50 is the negative decadic logarithm of the IC50, by convention in mol/L. The compound `CNC(=O)[C@H]1C[C@H]2C[C@H](C2(C)C)[C@@]1(C)Nc1nc(Nc2ccc(Cl)c(N3CCN(C(=O)OC)CC3)c2)ncc1Cl` [Compound 18, (1R,2R,3S,5R)-2-(2-(3-(4-(methoxycarbonyl)piperazin-1-yl)-4-chlorophenylamino)-5-chloropyrimidin-4-ylamino)-N,2,6,6-tetramethylbicyclo[3.1.1]heptane-3-carboxamide] had a pIC50 below 4.70.
The same measure, in the same setting: for `CNC(=O)[C@H]1C[C@H]2C[C@H](C2(C)C)[C@@]1(C)Nc1nc(Nc2ccc(C3CCN(C)CC3)cc2)ncc1Cl` [Compound 12, (1R,2R,3S,5R)-2-(5-chloro-2-(4-(1-methylpiperidin-4-yl)phenylamino)pyrimidin-4-ylamino)-N,2,6,6-tetramethylbicyclo[3.1.1]heptane-3-carboxamide] the value was above 6.00; for `CCN1CCN(c2cc(Nc3ncc(Cl)c(N[C@@]4(C)[C@@H](C(=O)NC)C[C@H]5C[C@@H]4C5(C)C)n3)ccc2Cl)CC1` [Compound 15, (1R,2R,3S,5R)-2-(5-chloro-2-(4-chloro-3-(4-ethylpiperazin-1-yl)phenylamino)pyrimidin-4-ylamino)-N,2,6,6-tetramethylbicyclo[3.1.1]heptane-3-carboxamide], 5.00 to 6.00.
As for `CNC(=O)[C@H]1C[C@H]2C[C@H](C2(C)C)[C@@]1(C)Nc1nc(Nc2ccc(C(=O)N3CCN(C)CC3)c(Cl)c2)ncc1Cl` [Compound 14], the pIC50 is above 6.00.
In turn, `CNC(=O)[C@H]1C[C@H]2C[C@H](C2(C)C)[C@@]1(C)Nc1nc(Nc2ccc(Cl)c(N3CCN(C(C)=O)CC3)c2)ncc1Cl` [Compound 16, (1R,2R,3S,5R)-2-(2-(3-(4-acetylpiperazin-1-yl)-4-chlorophenylamino)-5-chloropyrimidin-4-ylamino)-N,2,6,6-tetramethylbicyclo[3.1.1]heptane-3-carboxamide] had a pIC50 of 5.00 to 6.00.

The test is the same for the next values; noted with them: Table 3, formula (Ic); Hela cells, Axl antibody cross-linking stimulation, phospho-Akt chemiluminescence normalized to relative cell number.
`CNC(=O)[C@H]1C[C@H]2C[C@H](C2(C)C)[C@@]1(C)Nc1nc(Nc2ccc3c(c2)OCCN3CCN2CCCCC2)ncc1F` [Compound 57, (1R,2R,3S,5R)-2-(5-fluoro-2-((3,4-dihydro-4-(2-(piperidin-1-yl)ethyl)-2H-benzo[b][1,4]oxazin-7-yl)amino)pyrimidin-4-ylamino)-N,2,6,6-tetramethylbicyclo[3.1.1]heptane-3-carboxamide] had a pIC50 above 6.00.
`CNC(=O)[C@H]1C[C@H]2C[C@H](C2(C)C)[C@@]1(C)Nc1nc(Nc2ccc3c(c2)N(CCN(C)C)CCO3)ncc1F` [Compound 51, (1R,2R,3S,5R)-2-(5-fluoro-2-((3,4-dihydro-4-(2-(dimethylamino)ethyl)-2H-benzo[b][1,4]oxazin-6-yl)amino)pyrimidin-4-ylamino)-N,2,6,6-tetramethylbicyclo[3.1.1]heptane-3-carboxamide] gave a pIC50 of 5.00 to 6.00.
Regarding `CNC(=O)[C@H]1C[C@H]2C[C@H](C2(C)C)[C@@]1(C)Nc1nc(Nc2ccc3c(c2)OCCN3CCN(C)C)ncc1Cl` [Compound 47, (1R,2R,3S,5R)-2-(5-chloro-2-((3,4-dihydro-4-(2-(dimethylamino)ethyl)-2H-benzo[b][1,4]oxazin-7-yl)amino)pyrimidin-4-ylamino)-N,2,6,6-tetramethylbicyclo[3.1.1]heptane-3-carboxamide], the pIC50 was above 6.00.
On the same count and under the same terms, as for `CNC(=O)[C@H]1C[C@H]2C[C@H](C2(C)C)[C@@]1(C)Nc1nc(Nc2ccc3c(c2)N(CCN(C)C)CCO3)ncc1Cl` [Compound 50, (1R,2R,3S,5R)-2-(5-chloro-2-((3,4-dihydro-4-(2-(dimethylamino)ethyl)-2H-benzo[b][1,4]oxazin-6-yl)amino)pyrimidin-4-ylamino)-N,2,6,6-tetramethylbicyclo[3.1.1]heptane-3-carboxamide], the figure is 5.00 to 6.00; as for `CCN(CC)CCN1CCOc2cc(Nc3ncc(F)c(N[C@@]4(C)[C@@H](C(=O)NC)C[C@H]5C[C@@H]4C5(C)C)n3)ccc21` [Compound 46, (1R,2R,3S,5R)-2-(5-fluoro-2-((3,4-dihydro-4-(2-(diethylamino)ethyl)-2H-benzo[b][1,4]oxazin-7-yl)amino)pyrimidin-4-ylamino)-N,2,6,6-tetramethylbicyclo[3.1.1]heptane-3-carboxamide], above 6.00.
